{"source": "patent US12371454B2", "about": "“Cyclic peptide compound having Kras inhibitory action” (priority 2019, dated 2025)", "note": "Positions of bridges follow the written chain, without caps; N, C: chain ends. Non-standard residues stand in square brackets, D forms with d. Residues, ends and D or L forms follow the SMILES beside them. *: point of attachment. hPhe(3-Cl-4-CF3) = N[C@@H](CCc1ccc(C(F)(F)F)c(Cl)c1)C(=O)O; hPhe(3-F,4-CF3) = N[C@@H](CCc1ccc(C(F)(F)F)c(F)c1)C(=O)O; hPhe(4-CF3) = N[C@@H](CCc1ccc(C(F)(F)F)cc1)C(=O)O; Phe(3,5-Cl2) = N[C@@H](Cc1cc(Cl)cc(Cl)c1)C(=O)O; NEtPhe(4-Cl) = CCN[C@@H](Cc1ccc(Cl)cc1)C(=O)O; NMePhe(4-Cl) = CN[C@@H](Cc1ccc(Cl)cc1)C(=O)O; NMePhe(2-Cl) = CN[C@@H](Cc1ccccc1Cl)C(=O)O; NMeGly(cPent) = CN[C@H](C(=O)O)C1CCCC1; Phe(3-I) = N[C@@H](Cc1cccc(I)c1)C(=O)O; NMeCha = CN[C@@H](CC1CCCCC1)C(=O)O; Ala(cPr) = N[C@@H](CC1CC1)C(=O)O; NMeChg = CN[C@H](C(=O)O)C1CCCCC1; NMeT = CN[C@H](C(=O)O)[C@@H](C)O; NMeD = CN[C@@H](CC(=O)O)C(=O)O; NMeL = CN[C@@H](CC(C)C)C(=O)O; NMeV = CN[C@H](C(=O)O)C(C)C; d(β3hA) = C[C@@H](N)CC(=O)O; NMeA = CN[C@@H](C)C(=O)O; NMeAib = CNC(C)(C)C(=O)O; Nle = CCCC[C@H](N)C(=O)O; Piperidide = C1CCN(*)CC1; Pyrrolidide = C1CCN(*)C1; Ac5c = NC1(C(=O)O)CCCC1; Aze = O=C(O)[C@@H]1CCN1; Aib = CC(C)(N)C(=O)O; Sar = CNCC(=O)O", "data": [{"target": "T1, Kras and SOS1 (biotin-tagged human Kras loaded with GDP, His-tagged human SOS1) (Homo sapiens, UniProt P01116, G12D)", "T1 construct": "made in house; host or cells: E. coli (stated for Kras only)", "T1 sequence (P01116 1-188 isoform P01116-2 G12D)": "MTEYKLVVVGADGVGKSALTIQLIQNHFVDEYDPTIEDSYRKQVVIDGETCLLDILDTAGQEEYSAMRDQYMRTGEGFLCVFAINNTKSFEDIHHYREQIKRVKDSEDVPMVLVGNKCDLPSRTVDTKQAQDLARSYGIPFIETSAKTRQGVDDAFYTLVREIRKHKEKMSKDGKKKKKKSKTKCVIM", "experiment": "Protein-protein interaction inhibition between Kras and SOS1 (KrasGl2D-SOS PPI) using AlphaScreen", "assay_type": "binding", "conditions": "AlphaScreen; biotin-tagged human Kras loaded with GDP, His-tagged human SOS1; read-out: KRAS G12D-SOS PPI IC50", "procedure,_shortened": "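Kras was produced in E. coli, purified, then loaded with GDP. It was paired via streptavidin acceptor beads with His-SOS1 held on nickel donor beads, and proximity signal at 520-620 nm was read after 680 nm illumination.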", "units": {"IC50": "nM"}, "values": [{"smiles": "CC[C@H](C)[C@@H]1NC(=O)[C@H](CC(C)C)N(C)C(=O)C[C@@H](C)NC(=O)[C@H](CC(C)C)N(C)C(=O)C2(CCCC2)NC(=O)[C@@H]2CCCN2C(=O)[C@H](CCc2ccc(C(F)(F)F)cc2)NC(=O)CN(C)C(=O)[C@H](CC2CCCCC2)N(C)C(=O)CN(C)C(=O)CN(C)C1=O", "note": "[Compound 414] (cyclo([Ac5c][NMeL][d(β3hA)][NMeL]I[Sar][Sar][NMeCha][Sar][hPhe(4-CF3)]P))", "IC50": 110}, {"smiles": "CC[C@H](C)[C@@H]1NC(=O)[C@H](CC(C)C)N(C)C(=O)C[C@@H](C(=O)N2CCCCC2)NC(=O)[C@H](C(C)C)N(C)C(=O)C2(CCCC2)NC(=O)[C@@H]2CCCN2C(=O)[C@H](CCc2ccc(C(F)(F)F)c(Cl)c2)NC(=O)CN(C)C(=O)[C@H](CC2CCCCC2)N(C)C(=O)CN(C)C(=O)CN(C)C1=O", "note": "[Compound 417] ([NMeL]I[Sar][Sar][NMeCha][Sar][hPhe(3-Cl-4-CF3)]P[Ac5c][NMeV]D-Piperidide; lactam N-11)", "IC50": 15}, {"smiles": "CC[C@H](C)[C@@H]1NC(=O)[C@H](C(C)C)N(C)C(=O)C[C@@H](C)NC(=O)[C@H](CC(C)C)N(C)C(=O)C2(CCCC2)NC(=O)[C@H](CC(C)C)N(C)C(=O)[C@H](CCc2ccc(C(F)(F)F)c(F)c2)NC(=O)CN(C)C(=O)[C@H](Cc2ccc(Cl)cc2)N(C)C(=O)[C@@H]2CCN2C(=O)CN(C)C1=O", "note": "[Compound 418] (cyclo([Ac5c][NMeL][d(β3hA)][NMeV]I[Sar][Aze][NMePhe(4-Cl)][Sar][hPhe(3-F,4-CF3)][NMeL]))", "IC50": 17}, {"smiles": "CC(C)C[C@H]1C(=O)N[C@@H](CC2CC2)C(=O)N(C)CC(=O)N(C)CC(=O)N(C)[C@@H](CC2CCCCC2)C(=O)N(C)CC(=O)N[C@@H](CCc2ccc(C(F)(F)F)c(Cl)c2)C(=O)N2CCC[C@H]2C(=O)NC2(CCCC2)C(=O)N(C)[C@@H](C(C)C)C(=O)N(C)[C@H](C(=O)N2CCCCC2)CC(=O)N1C", "note": "[Compound 421] ([NMeL][Ala(cPr)][Sar][Sar][NMeCha][Sar][hPhe(3-Cl-4-CF3)]P[Ac5c][NMeV][NMeD]-Piperidide; lactam N-11)", "IC50": 10}, {"smiles": "CCCC[C@@H]1NC(=O)[C@H](Cc2cccc(I)c2)NC(=O)CN(C)C(=O)[C@H](Cc2ccc(Cl)cc2)N(CC)C(=O)CN(C)C(=O)CN(C)C(=O)[C@H]([C@@H](C)CC)NC(=O)[C@H](CC(C)C)N(C)C(=O)C[C@@H](C(=O)N2CCCCC2)N(C)C(=O)[C@H](CC(C)C)NC(=O)C(C)(C)N(C)C1=O", "note": "[Compound 423] ([NMeL]I[Sar][Sar][NEtPhe(4-Cl)][Sar][Phe(3-I)][Nle][NMeAib]L[NMeD]-Piperidide; lactam N-11)", "IC50": 64}, {"smiles": "CC[C@H](C)[C@@H]1NC(=O)[C@H](C)N(C)C(=O)C[C@@H](C(=O)N2CCCC2)N(C)C(=O)[C@H](C(C)C)N(C)C(=O)C(C)(C)NC(=O)[C@H](Cc2ccccc2Cl)N(C)C(=O)[C@H](CCc2ccc(C(F)(F)F)c(Cl)c2)NC(=O)CN(C)C(=O)[C@H](CC2CCCCC2)N(C)C(=O)CN(C)C(=O)CN(C)C1=O", "note": "[Compound 426] ([NMeA]I[Sar][Sar][NMeCha][Sar][hPhe(3-Cl-4-CF3)][NMePhe(2-Cl)][Aib][NMeV][NMeD]-Pyrrolidide; lactam N-11)", "IC50": 8.7}, {"smiles": "CC[C@H](C)[C@@H]1NC(=O)[C@H](CC(C)C)N(C)C(=O)C[C@@H](C(=O)N2CCCCC2)N(C)C(=O)[C@H](C2CCCCC2)N(C)C(=O)C2(CCCC2)NC(=O)[C@@H]2CCCN2C(=O)[C@H](CCc2ccc(C(F)(F)F)c(Cl)c2)NC(=O)CN(C)C(=O)[C@H]([C@@H](C)O)N(C)C(=O)CN(C)C(=O)CN(C)C1=O", "note": "[Compound 427] ([NMeL]I[Sar][Sar][NMeT][Sar][hPhe(3-Cl-4-CF3)]P[Ac5c][NMeChg][NMeD]-Piperidide; lactam N-11)", "IC50": 0.71}, {"smiles": "CC[C@H](C)[C@@H]1NC(=O)[C@H](C)N(C)C(=O)C[C@@H](C)NC(=O)[C@H](C2CCCC2)N(C)C(=O)C2(CCCC2)NC(=O)[C@@H]2CCCN2C(=O)[C@H](CCc2ccc(C(F)(F)F)c(Cl)c2)NC(=O)CN(C)C(=O)[C@H](CC(C)C)N(C)C(=O)[C@@H]2CCCN2C(=O)CN(C)C1=O", "note": "[Compound 429] (cyclo([Ac5c][NMeGly(cPent)][d(β3hA)][NMeA]I[Sar]P[NMeL][Sar][hPhe(3-Cl-4-CF3)]P))", "IC50": 99}, {"smiles": "CCCC[C@@H]1NC(=O)[C@H](Cc2cc(Cl)cc(Cl)c2)NC(=O)CN(C)C(=O)[C@H](Cc2ccc(Cl)cc2)N(C)C(=O)CN(C)C(=O)CN(C)C(=O)[C@H]([C@@H](C)CC)NC(=O)[C@H](CC(C)C)N(C)C(=O)C[C@@H](C(=O)N2CCCCC2)N(C)C(=O)[C@H](CC(C)C)NC(=O)C(C)(C)N(C)C1=O", "note": "[Compound 431] ([NMeL]I[Sar][Sar][NMePhe(4-Cl)][Sar][Phe(3,5-Cl2)][Nle][NMeAib]L[NMeD]-Piperidide; lactam N-11)", "IC50": 250}]}]}
